Results from patent US10307412B2, “Quinoline derivative against non-small cell lung cancer” (CHIA TAI TIANQING PHARMACEUTICAL GROUP CO., LTD., priority 2014, dated 2019).
Where a name gives a salt, the structure may show the parent alone.

Key:
Assay type in all cases: in vivo, human
[1] = tested on: left upper lobe lung adenocarcinoma (T4N3M1a, stage IV); assay: Case report, stage IV lung adenocarcinoma (Example 6); conditions: for sum of the diameter of two measurable target lesions: baseline 58 mm
Description: A retired person, smoking for 30 years (20 cigarettes/day), underwent thyroid adenoma resection 10 years ago. […] From Aug. 1, 2013 to Sep. […] From Dec. 26, 2013 to Jan. […] On Jan. […] On Feb.
From Feb. 28, 2014, the capsule of dihydrochloride of compound I was taken orally at 12 mg once daily with repeated treatment cycles (treatment given for consecutive two weeks followed by one week of rest is one treatment cycle).

[2] = tested on: non-small cell lung cancer; assay: Case report, non-small cell lung cancer, EGFR gene no mutation (Example 7)
Excerpt: From Jun. […] From Oct. […] On Jan. […] From Jan. […] On Jul.

[3] = tested on: right lower lung adenocarcinoma (T4N2M1b, stage IV); assay: Case report, stage IV lung adenocarcinoma (Example 5); conditions: for sum of the longest diameter of the two measurable lesions: baseline 45.7 mm
Description: 3, 2013, the capsule of dihydrochloride of compound I was taken orally at 12 mg once daily with repeated treatment cycles (treatment given for consecutive two weeks followed by one week of rest is one treatment cycle). Treatment toxicities were assessed at 4-week follow-up, and the number of blood cells and blood chemistry were analyzed every two or three weeks, treatment response was assessed based on CT scan as well.

[4] = tested on: non-small cell lung cancer squamous cell carcinoma; assay: Case report, non-small cell lung cancer squamous cell carcinoma (Example 8)
Description: EML4-ALK fusion gene had no mutation, EGFR gene had no mutation by gene detection.
From Mar. 26, 2013 to Jun. 5, 2013, the patient was treated with cisplatin and gemcitabine chemotherapy for 4 cycles, and the best efficacy was SD. After the end of the chemotherapy, they were treated with the local radiotherapy of the lung for 1 cycle, during which the adverse reactions was light. From Sep. 9, 2013 to Oct. 6, 2013, the patient was treated with cisplatin and gemcitabine chemotherapy for 2 cycles. December 2013, disease was found progression by review of CT. From Mar. 24, 2014, the patient was treated with docetaxel chemotherapy for 1 cycle. […] On Dec. […] Double lungs had multiple pulmonary bullae, which changed little than before; 3. Double lungs had inflammation, the scope of which was smaller than before; 4. Left clavicle, mediastinal and right hilar had multiple lymph nodes, which were slightly larger than before. From Jan. 7, 2015 to Jan. […] On Mar. […] On Mar. 6, 2015, the patient was treated with oral Tiggio treatment. […] On Jun.
From Jun. 4, 2015, the patient received dihydrochloride of compound I capsule treatment that one cycle plan was 12 mg dose once, q.d., and continuous medication for 2 weeks, and then suspended medication for 1 week. On Jun.

[5] = tested on: patients with lung adenocarcinoma; assay: Randomized, double-blind, placebo-controlled trial in lung adenocarcinoma patients (Example 4)
Excerpt: (§1) In this paper, progression-free survival P25 refers to the time that 75% of the patients who participated in the disease had no progress in disease; Progressive survival P50 refers to the time that 50% of the patients who participated in the disease had no progress in disease; Progression-free survival P75 refers to the time that 25% of the patients who participated in the disease had no progress in disease; the progression-free survival was the mean value of the progression-free survival of the patient who participated in the results of statistics.
Randomized, double-blind, placebo-controlled trials were performed in patients with measurable lesions which were pathologically diagnosedas lung adenocarcinoma, who had received second-line or higher-line therapy, or those who were intolerable to the aforementioned treatment, and who had been treated with other cytotoxic drugs, radiotherapy or surgery for more than four weeks. In this study, efficacy of the capsules of dihydrochloride of compound I was initially evaluated against placebo in the treatment of patients with lung adenocarcinoma. The primary outcome of the evaluation was progression-free survival (PFS). 104 patients with lung adenocarcinoma enrolled in this study, whose age was between 18-70. Among them, 50 patients were randomized into placebo group and 54 patients randomized into dihydrochloride of compound I group.
(§2) The above-mentioned eligible lung adenocarcinoma patients were treated with dihydrochloride of compound I/placebo for clinical trials. They were administered 12 mg/0 mg of compound I/placebo individually once daily for consecutive two weeks followed by one-week rest from administration, namely the period of a cycle regimen was three weeks (21 days), those who were ineligible for continuous therapy or whose disease were progressive disease (PD) according to the reassessment were excluded from the medication.
(§3) Results: A total of 104 patients with lung adenocarcinoma were enrolled in the study, including 50 patients randomized into placebo group and 54 patients randomized into dihydrochloride of compound I group. 37 patients in placebo group and 30 patients in dihydrochloride of compound I group were involved in data statistics, the remaining patients who dropped out or excluded from the study or those were still in follow-up were not included in the statistics.

[6] = tested on: patients with non-small cell lung cancer; assay: Randomized, double-blind, placebo-controlled trial in non-small cell lung cancer patients (Example 3); conditions: for progression-free survival (PFS, month) Mean / progression-free survival (PFS, month) P25 / progression-free survival (PFS, month) P50 / progression-free survival (PFS, month) P75: 12 mg once daily, two weeks on, one week rest
Excerpt: as §1
Randomized, double-blind, placebo-controlled trials were performed in patients with measurable lesions which were pathologically diagnosedas non-small cell lung cancer, who had received second-line or higher-line therapy, or those who were intolerable to aforementioned treatment, and who had been treated with other cytotoxic drugs, radiotherapy or surgery for more than four weeks. In this study, efficacy of the capsules of dihydrochloride of compound I was initially evaluated against placebo in the treatment of patients with non-small cell lung cancer. The primary outcome of the evaluation was progression-free survival (PFS). 117 patients with non-small cell lung cancer enrolled in this study, whose age was between 18-70. Among them, 57 patients were randomized into placebo group and 60 patients randomized into dihydrochloride of compound I group.
as §2, with “above-mentioned eligible non-small cell lung cancer” for “above-mentioned eligible lung adenocarcinoma”, “cell lung cancer patients were” for “eligible lung adenocarcinoma patients were”
as §3, with “117” for “104”, “with non-small cell” for “with”, “cancer” for “adenocarcinoma”, “57” for “50”, “60” for “54”, “43” for “37”

[7] = after ten treatment cycles (210 days)
[8] = lung adenocarcinoma, 12 mg once daily, two weeks on, one week rest
[9] = after three-week administration

gemcitabine/cisplatin [reference compound]
outcome of prior therapy (medical history) ([1]; one treatment cycle each): unsatisfactory

COc1cc2c(Oc3ccc4[nH]c(C)cc4c3F)ccnc2cc1OCC1(N)CC1 [dihydrochloride of compound I, 1-[[[4-(4-fluoro-2-methyl-1H-indol-5-yl)oxy-6-methoxyquinolin-7-yl]oxy]methyl]cyclopropylamine dihydrochloride]
left temporal lobe nodules, head enhancement CT ([2]; Aug. 20, 2015): slightly smaller than baseline | tolerability of adverse reactions ([2]; until application date): could tolerate adverse reactions | tolerance ([3]; 12 mg once daily orally): well tolerated | reduction of sum of the longest diameter [3, 7]: 43.1% | sum of the longest diameter of the two measurable lesions [3, 7]: 26 mm | reduction of sum of the longest diameter ([3]; after treatment for 6 weeks): 31.22% | sum of the longest diameter of the two measurable lesions ([3]; after treatment for 6 weeks, 12 mg once daily orally): 31.43 mm | blood routine examinations including the number of blood cells ([3]; during treatment): not significantly altered | target lesion sum ([4]; Jul. 15, 2015): 63 mm | target lesion sum ([4]; Oct. 16, 2015): 56 mm | target lesion sum ([4]; Sep. 8, 2015): 57 mm | reduction of total target lesions versus baseline ([4]; after 1 cycle (Jun. 25, 2015)): 10 mm | total target lesions ([4]; after 1 cycle (Jun. 25, 2015)): 66 mm | tolerability of adverse reactions ([4]; until application date): could tolerate adverse reactions | progression-free survival (PFS, month) Mean [5, 8]: 4.77 month | progression-free survival (PFS, month) P25 [5, 8]: 2.77 month | progression-free survival (PFS, month) P50 [5, 8]: 4.33 month | progression-free survival (PFS, month) P75 [5, 8]: 6.87 month | effect on progression-free survival versus placebo ([5]; patients with lung adenocarcinoma): significantly prolong progression-free survival | tolerance ([1]; 12 mg once daily orally): generally well tolerated | lesion in anterior segment of left upper lobe lung, diameter ([1]; after 15-week administration): 10 mm | lesion in mediastinal lymph node, diameter ([1]; after 15-week administration): 15 mm | reduction of sum of target lesions ([1]; after 15-week administration): 56.9% | sum of the diameter of two measurable target lesions ([1]; after 15-week administration): 25 mm | lesion in anterior segment of left upper lobe lung, diameter ([1]; after nine-week administration): 10 mm | lesion in mediastinal lymph node, diameter ([1]; after nine-week administration): 16 mm | reduction of sum of target lesions ([1]; after nine-week administration): 55.2% | sum of the diameter of two measurable target lesions ([1]; after nine-week administration): 26 mm | reduction of sum of target lesions [1, 9]: 37.9% | lesion in mediastinal lymph node, diameter ([1]; after three-week administration, baseline 21 mm): 18 mm | lesion in anterior segment of left upper lobe lung, diameter ([1]; after three-week administration, baseline 37 mm): 18 mm | sum of the diameter of two measurable target lesions [1, 9]: 36 mm | blood changes ([1]; during treatment): not significant | heart toxicity ([1]; during treatment): no heart toxicity related to the drug | progression of non-target lesions and new lesions ([1]; during treatment): not observed | response and clinical performance ([1]; given for 279 days, 14th treatment cycle): sustained response against tumor and good clinical performance | lesion in anterior segment of left upper lobe lung, diameter ([1]; six weeks administration): 14 mm | lesion in mediastinal lymph node, diameter ([1]; six weeks administration): 15 mm | reduction of sum of target lesions ([1]; six weeks administration): 50% | sum of the diameter of two measurable target lesions ([1]; six weeks administration): 29 mm | lesion in anterior segment of left upper lobe lung, diameter ([1]; twelve weeks administration): 10 mm | lesion in mediastinal lymph node, diameter ([1]; twelve weeks administration): 16 mm | reduction of sum of target lesions ([1]; twelve weeks administration): 55.2% | sum of the diameter of two measurable target lesions ([1]; twelve weeks administration): 26 mm | progression-free survival (PFS, month) Mean ([6]; age > 60): 5.84 month | progression-free survival (PFS, month) P25 ([6]; age > 60): 2.83 month | progression-free survival (PFS, month) P50 ([6]; age > 60): 6.40 month | progression-free survival (PFS, month) P75 ([6]; age > 60): 8.30 month | progression-free survival (PFS, month) Mean ([6]; age ≤ 60): 4.48 month | progression-free survival (PFS, month) P25 ([6]; age ≤ 60): 2.77 month | progression-free survival (PFS, month) P50 ([6]; age ≤ 60): 4.30 month | progression-free survival (PFS, month) P75 ([6]; age ≤ 60): 6.17 month | effect on progression-free survival versus placebo ([6]; patients with non-small cell lung cancer): significantly prolong progression-free survival

CC(=O)O[C@@]12CO[C@@H]1C[C@H](O)[C@@]1(C)C(=O)[C@H](O)C3=C(C)[C@@H](OC(=O)[C@H](O)[C@@H](NC(=O)OC(C)(C)C)c4ccccc4)C[C@@](O)([C@@H](OC(=O)c4ccccc4)[C@H]21)C3(C)C [docetaxel, reference compound]
adverse reactions after prior chemotherapy (medical history) ([4]; in vivo): bone marrow suppression, oral infection, pneumonia appeared
